Test results published in ChEMBL document CHEMBL3124752, “Small molecule disruptors of the glucokinase-glucokinase regulatory protein interaction: 1. Discovery of a novel tool compound for in vivo proof-of-concept” (J Med Chem, 2014).

What was measured:
[1] = target: T1, Glucokinase regulatory protein (Rattus norvegicus, UniProt Q07071); test: Inhibition of GKRP-GK interaction in rat primary hepatocytes assessed as translocation of GK from nucleus to cytoplasm preincubated for 20 mins followed by glucose addition measured after 40 mins by fluorescence assay; type: cell-based, Hepatocyte
T1 sequence (Q07071 whole entry): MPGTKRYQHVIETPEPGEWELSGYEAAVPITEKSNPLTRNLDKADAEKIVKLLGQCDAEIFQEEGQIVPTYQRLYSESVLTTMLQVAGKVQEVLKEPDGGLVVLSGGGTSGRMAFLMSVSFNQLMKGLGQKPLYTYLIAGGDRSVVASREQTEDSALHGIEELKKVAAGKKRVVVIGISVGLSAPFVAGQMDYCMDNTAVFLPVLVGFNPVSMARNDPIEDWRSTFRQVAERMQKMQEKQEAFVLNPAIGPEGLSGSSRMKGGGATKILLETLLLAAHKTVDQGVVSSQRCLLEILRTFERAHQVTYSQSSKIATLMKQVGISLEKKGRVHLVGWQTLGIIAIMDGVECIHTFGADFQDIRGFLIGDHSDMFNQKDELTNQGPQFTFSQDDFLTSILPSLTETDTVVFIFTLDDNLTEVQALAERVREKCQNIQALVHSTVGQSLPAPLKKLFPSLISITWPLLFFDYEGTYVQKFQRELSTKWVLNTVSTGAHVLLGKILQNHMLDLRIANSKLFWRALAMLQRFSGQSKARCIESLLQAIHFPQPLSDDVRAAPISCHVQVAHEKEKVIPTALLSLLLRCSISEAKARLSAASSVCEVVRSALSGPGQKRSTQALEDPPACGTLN

[2] = Fraction unbound in Sprague-Dawley rat plasma at 2 mg/kg, iv and 10 mg/kg, po; type: ADME, organism-based; conditions: other: intravenous and oral
[3] = Oral bioavailability in Sprague-Dawley rat at 10 mg/kg; type: ADME, organism-based; conditions: in vivo
[4] = Cmax in Sprague-Dawley rat at 10 mg/kg, po; type: ADME, organism-based; design: dose 10 mg/kg, route oral; conditions: in vivo
[5] = Volume of distribution at steady state in Sprague-Dawley rat at 2 mg/kg, iv; type: ADME, organism-based; design: dose 2 mg/kg, route intravenous; conditions: in vivo, read-out: Vdss
[6] = Clearance in Sprague-Dawley rat at 2 mg/kg, iv; type: ADME, organism-based; design: dose 2 mg/kg, route intravenous; conditions: in vivo
Hexokinase-4 = target: T2, Hexokinase-4 (Homo sapiens, UniProt P35557); test: Activation of human glucokinase
T2 sequence (P35557 whole entry): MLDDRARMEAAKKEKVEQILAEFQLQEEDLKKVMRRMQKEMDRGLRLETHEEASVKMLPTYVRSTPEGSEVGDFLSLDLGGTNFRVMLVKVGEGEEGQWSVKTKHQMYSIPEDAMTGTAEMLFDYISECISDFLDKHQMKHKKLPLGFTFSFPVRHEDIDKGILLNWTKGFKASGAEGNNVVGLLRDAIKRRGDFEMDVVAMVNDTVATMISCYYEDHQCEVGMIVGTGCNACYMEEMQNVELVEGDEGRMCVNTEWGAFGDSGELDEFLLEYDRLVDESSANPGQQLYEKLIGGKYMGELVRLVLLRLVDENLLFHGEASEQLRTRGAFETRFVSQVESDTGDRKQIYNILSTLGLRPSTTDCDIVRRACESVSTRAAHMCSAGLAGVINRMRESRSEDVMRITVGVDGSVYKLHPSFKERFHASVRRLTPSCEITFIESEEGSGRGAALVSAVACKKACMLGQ

Rattus norvegicus [7] = species: Rattus norvegicus; test: Toxicity in Zucker diabetic fatty rat assessed as change in plasma triglyceride level; type: organism-based; conditions: in vivo
Rattus norvegicus [8] = species: Rattus norvegicus; test: Toxicity in Zucker diabetic fatty rat assessed as change in plasma insulin level; type: organism-based; conditions: in vivo
Rattus norvegicus [9] = test: Toxicity in Wistar rat assessed as induction of hypoglycemia at 100 mg/kg, po; type: organism-based; design: dose 100 mg/kg, route oral; conditions: in vivo
Rattus norvegicus [10] = test: fCmax in Wistar rat at 100 mg/kg, po; type: ADME, organism-based; design: dose 100 mg/kg, route oral; conditions: in vivo
Rattus norvegicus [11] = species: Rattus norvegicus; test: fCmax in Sprague-Dawley rat; type: ADME, organism-based; conditions: in vivo
[12] = Intrinsic clearance in Sprague-Dawley rat liver microsomes at 1 uM after 30 mins in presence of NADPH; type: ADME; conditions: read-out: CLH

C[C@H]1COCCN1C[C@H]1CN(S(=O)(=O)c2cccs2)CCN1c1ccc(C(O)(C(F)(F)F)C(F)(F)F)cc1
EC50 [1]: 1810 nM

O=S(=O)(c1cccs1)N1CCN(c2ccc(C(O)(C(F)(F)F)C(F)(F)F)cc2)[C@@H](CN2CCOCC2)C1
EC50 [1]: 3990 nM

O=S(=O)(c1cccs1)N1CCN(c2ccc(C(O)(C(F)(F)F)C(F)(F)F)cc2)CC1
fraction unbound [2]: 0.0062 | bioavailability [3]: 28% | Cmax [4]: 350 nM | Vd [5]: 6.81 L/kg | clearance [6]: 44 mL/min/kg | EC50 (Hexokinase-4): > 50000 nM

O=S(=O)(c1cccs1)N1CCN(c2ccc(C(O)(C(F)(F)F)C(F)(F)F)cc2)[C@@H](CC2CCOCC2)C1
EC50 [1]: 5470 nM

C[C@](O)(c1ccc(N2CCN(S(=O)(=O)c3cccs3)C[C@@H]2CC2CCOCC2)cc1)C(F)(F)F
EC50 [1]: 4760 nM

C[C@H]1COCCN1C[C@H]1CN(S(=O)(=O)c2cccs2)CCN1c1ccc([C@@](C)(O)C(F)(F)F)cc1
Activity (Rattus norvegicus [7]): Non-toxic | Activity (Rattus norvegicus [8]): Non-toxic | Activity (Rattus norvegicus [9]): Toxic | fCmax (Rattus norvegicus [10]): 0.056 µM | fCmax (Rattus norvegicus [11]): 0.004 µM | fraction unbound [2]: 0.037 | bioavailability [3]: 7.86% | Cmax [4]: 110 nM | microsomal CLint at 1 µM [12]: 608 µL/min/mg | EC50 (Hexokinase-4): > 50000 nM | EC50 [1]: 82 nM

C[C@H]1COCCN1C[C@H]1CN(S(=O)(=O)c2cccs2)CCN1c1ccc([C@](C)(O)C(F)(F)F)cc1
EC50 [1]: 220 nM

C[C@@](O)(c1ccc(N2CCN(S(=O)(=O)c3cccs3)C[C@@H]2CC2CCOCC2)cc1)C(F)(F)F
EC50 [1]: 890 nM
